According to paper PMC9655717, “New Molecules of Diterpene Origin with Inhibitory Properties toward α-Glucosidase” (International Journal of Molecular Sciences, 2022):
Read-outs that look alike come from different tables or passages of the source.

Biological target: T1, yeast α-GLy (α-glucosidase, Sigma G0660) (Saccharomyces cerevisiae, UniProt P53341)
T1 construct: purchased Sigma G0660
Experiment: biochemical
Type: biochemical
Settings: for IC50: yeast α-glucosidase, 37°C, pH 6.8
Description: S1. Materials and Methods […]
glucosidase inhibition assay. α-Glucosidase enzyme inhibition assay was carried out in a 96-well microplate. The method’s principle based on the hydrolyzed reaction of 4-nitrophenyl-α-D-glucopiranoside with α-glucosidase enzyme into yellow 4- […]
p-Nitrophenyl α-D-Glucoside a- Gl ucosidas e α-D-Glucose + p- Nitrophenol α-Glucosidase inhibitory activity assay was performed following the modified method of Pistia Brueggeman and Hollingsworth with slight modification. Quinopimaric […]
concentrations of 256, 64, 16, 4 and 1 µg/mL. In a 96-well plate, a reaction mixture containing 20 μL of phosphate buffer (100 mM; pH 6.8), 20 μL of α-glucosidase (0.3 U/mL, Sigma G0660) (this concentration was determined by a series of α-glucosidase […]
linearity between the enzyme concentration and the absorbance of yellow color mixture after reaction which was approximately 5-fold higher than the back ground and at least […]
concentrations was pre-incubated for 10 min at 37°C. Then 20 μL of […] p-nitrophenyl α-D-glucopyranoside (Sigma N1377) was added to the mixture as a substrate. After further incubation at 37°C for 30 min, the reaction was stopped by adding 80 μL of 0.1 […]
solution were prepared using the phosphate buffer […]; pH 6.8. […]
as a positive control and water as negative control. The yellow color produced was quantitated by colorimetric analysis and reading the absorbance at 410 nm. Each experiment was performed in triplicates, along with appropriate blanks. The solvent DMSO was use as negative control to evaluate its effect on α-glucosidase activity. […]
or substrate in negative control. Back ground was determined by volume of buffer as […]
The % inhibition has been obtained using the formula:
% inhibition = {Absorbance (control) –Absorbance (sample)}/Absorbance (control) IC50 value is defined as the concentration of samples inhibiting 50% of α-glucosidase activity under the stated assay conditions. […]

[1] = IC50 ± SE, α-glucosidase inhibition
[2] = read-out: IC50 ± SE, α-glucosidase inhibition

T1 sequence (P53341 whole entry): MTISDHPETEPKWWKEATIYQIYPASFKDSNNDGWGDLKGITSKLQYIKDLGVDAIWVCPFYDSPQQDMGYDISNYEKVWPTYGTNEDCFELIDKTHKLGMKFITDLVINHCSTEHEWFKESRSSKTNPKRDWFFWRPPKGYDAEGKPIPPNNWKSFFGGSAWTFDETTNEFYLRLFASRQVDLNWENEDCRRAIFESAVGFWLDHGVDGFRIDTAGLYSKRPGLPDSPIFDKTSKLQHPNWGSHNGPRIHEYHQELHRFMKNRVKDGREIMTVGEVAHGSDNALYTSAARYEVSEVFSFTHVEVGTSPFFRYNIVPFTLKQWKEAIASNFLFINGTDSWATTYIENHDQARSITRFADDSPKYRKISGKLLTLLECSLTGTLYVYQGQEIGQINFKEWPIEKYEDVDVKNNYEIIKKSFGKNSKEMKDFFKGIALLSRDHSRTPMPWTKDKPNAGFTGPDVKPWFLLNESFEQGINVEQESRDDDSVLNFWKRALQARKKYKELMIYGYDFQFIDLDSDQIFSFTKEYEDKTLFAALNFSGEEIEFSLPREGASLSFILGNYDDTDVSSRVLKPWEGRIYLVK

Row | SMILES | IC50 [1] [µM] | other results
1 | CC(C)C1=C[C@@]23CC[C@@H]4[C@](C)(CCC[C@@]4(C)C(=O)O)[C@H]2C[C@@H]1[C@H]1C(=O)C=CC(=O)[C@H]13 [Compound 1, quinopimaric acid] | 59.59 ± 0.18 | times more active (potent) than acarbose (ratio of α-GLy IC50 values versus acarbose): three times higher
2 | CC(C)C1=C[C@@]23CC[C@H]4[C@](C)(CO)CCC[C@]4(C)[C@H]2C[C@@H]1[C@@H]1[C@H]3[C@@H](O)CC[C@@H]1O [Compound 2] | > 255 | 
3 | COC(=O)[C@]1(C)CCC[C@]2(C)[C@H]3C[C@@H]4[C@H]5[C@@H]6CCC(=O)[C@H]5[C@@]3(CC[C@H]21)C[C@@]4(C(C)C)O6 [Compound 3, 1β,13α-epoxy methyldihydroquinopimarate] | > 255 | 
4 | COC(=O)[C@]1(C)CCC[C@]2(C)[C@H]3C[C@@H]4[C@H]5[C@@H]6CCC(=NO)[C@H]5[C@@]3(CC[C@H]21)C[C@@]4(C(C)C)O6 [Compound 4] | > 255 | 
5 | COC(=O)[C@]1(C)CCC[C@]2(C)[C@H]3C[C@@H]4[C@H]5[C@@H]6CCC(=NOCCC#N)[C@H]5[C@@]3(CC[C@H]21)C[C@@]4(C(C)C)O6 [Compound 5] | > 255 | 
6 | COC(=O)[C@]1(C)CCC[C@]2(C)[C@H]3C[C@H]4C(C(C)C)=C[C@]3(CC[C@H]21)[C@@H]1C(=O)C(=Cc2ccc(OC)cc2)C[C@H](O)[C@@H]14 [Compound 6] |  | IC50 [2]: 1.63 ± 0.006 µM
7 | COC(=O)[C@]1(C)CCC[C@]2(C)[C@H]3C[C@H]4C(C(C)C)=C[C@]3(CC[C@H]21)[C@@H]1C(=O)C(=Cc2ccco2)C[C@H](O)[C@@H]14 [Compound 7] |  | IC50 [2]: 2.5 ± 0.011 µM
8 | CC(C)C1=C[C@@]23CC[C@@H]4[C@](C)(CCC[C@@]4(C)C(=O)O)[C@H]2C[C@@H]1[C@H]1C(=O)CCC(=O)[C@H]13 [Compound 8, 2,3-dihydroquinopimaric acid] | 35.6 ± 0.92 | 
9 | CC(C)C1=C[C@@]23CC[C@@H]4[C@](C)(CCC[C@@]4(C)C(=O)NCCCCNCCCN)[C@H]2C[C@@H]1[C@H]1C(=O)CCC(=O)[C@H]13 [Compound 9] |  | IC50 [2]: 35.2 ± 0.71 µM
10 | C#CCNC(=O)[C@]1(C)CCC[C@]2(C)[C@H]3C[C@H]4C(C(C)C)=C[C@]3(CC[C@H]21)[C@@H]1C(=O)CCC(=O)[C@@H]14 [Compound 10] | > 255 | 
11 | CC(C)C1=C[C@@]23CC[C@@H]4[C@](C)(CCC[C@@]4(C)C(=O)N4CCCNCC4)[C@H]2C[C@@H]1[C@H]1C(=O)CCC(=O)[C@H]13 [Compound 11] | > 255 | 
12 | COC(=O)C(C)NC(=O)[C@]1(C)CCC[C@]2(C)[C@H]3C[C@H]4C(C(C)C)=C[C@]3(CC[C@H]21)[C@@H]1C(=O)CCC(=O)[C@@H]14 (some centres unmarked) [Compound 12] | > 255 | 
13 | COC(=O)C(CCSC)NC(=O)[C@]1(C)CCC[C@]2(C)[C@H]3C[C@H]4C(C(C)C)=C[C@]3(CC[C@H]21)[C@@H]1C(=O)CCC(=O)[C@@H]14 (some centres unmarked) [Compound 13] | > 255 | 
14 | COC(=O)[C@]1(C)CCC[C@]2(C)[C@H]3C[C@H]4C(C(C)C)=C[C@]3(CC[C@H]21)[C@@H]1C(=O)CC[C@H](O)[C@@H]14 [Compound 14] | > 255 | 
15 | COC(=O)[C@]1(C)CCC[C@]2(C)[C@H]3C[C@H]4C(C(C)C)=C[C@]3(CC[C@H]21)[C@@H]1C(=O)CC[C@H](OC(C)=O)[C@@H]14 [Compound 15] | > 255 | 
16 | COC(=O)[C@]1(C)CCC[C@]2(C)[C@H]3C[C@H]4C(C(C)C)=C[C@]3(CC[C@H]21)[C@@H]1C(=O)CC[C@H](OCCC#N)[C@@H]14 [Compound 16] | > 255 | 
17 | COC(=O)[C@]1(C)CCC[C@]2(C)[C@H]3C[C@H]4C(C(C)C)=C[C@]3(CC[C@H]21)[C@@H]1C(=O)CC[C@H](OC(=O)CCC(=O)O)[C@@H]14 [Compound 17] | > 255 | 
18 | COC(=O)[C@]1(C)CCC[C@]2(C)[C@H]3C[C@H]4C(C(C)C)=C[C@]3(CC[C@H]21)[C@@H]1C(=O)CC[C@H](OC(=O)CCCC(=O)O)[C@@H]14 [Compound 18] | > 255 | 
19 | COC(=O)[C@]1(C)CCC[C@]2(C)[C@H]3C[C@H]4C(C(C)C)=C[C@]3(CC[C@H]21)[C@@H]1C(=O)CC[C@H](OC(=O)c2cccnc2)[C@@H]14 [Compound 19] | > 255 | 
20 | COC(=O)[C@]1(C)CCC[C@]2(C)[C@H]3C[C@H]4C(C(C)C)=C[C@]3(CC[C@H]21)[C@@H]1C(=O)CC[C@H](OC(=O)c2ccccc2C(=O)O)[C@@H]14 [Compound 20] | > 255 | 

Row | SMILES | IC50 [1] [µM] | other results
21 | COC(=O)[C@]1(C)CCC[C@]2(C)[C@H]3C[C@H]4C(C(C)C)=C[C@]3(CC[C@H]21)[C@H]1[C@@H]4[C@@H](O)CC[C@@H]1O [Compound 21] | > 255 | 
22 | COC(=O)[C@]1(C)CCC[C@]2(C)[C@H]3C[C@H]4C(C(C)C)=C[C@]3(CC[C@H]21)[C@H]1[C@@H]4[C@@H](OCCC#N)CC[C@@H]1OCCC#N [Compound 22] | > 255 | 
23 | COC(=O)[C@]1(C)CCC[C@]2(C)[C@H]3C[C@H]4C(C(C)C)=C[C@]3(CC[C@H]21)[C@H]1[C@@H]4[C@@H](OCCC(N)=NO)CC[C@@H]1OCCC(N)=NO [Compound 23] | > 255 | 
24 | COC(=O)[C@]1(C)CCC[C@]2(C)[C@H]3C[C@H]4C(C(C)C)=C[C@]3(CC[C@H]21)[C@H]1[C@@H]4[C@@H](OC(=O)c2cccnc2)CC[C@@H]1OC(=O)c1cccnc1 [Compound 24] | > 255 | 
25 | COC(=O)[C@]1(C)CCC[C@]2(C)[C@H]3C[C@@H]4[C@H]5[C@@H]6CC(Br)C(=O)[C@H]5[C@@]3(CC[C@H]21)C[C@@]4(C(C)C)O6 (some centres unmarked) [Compound 25] | > 255 | 
26 | COC(=O)[C@]1(C)CCC[C@]2(C)[C@H]3C[C@@H]4[C@H]5[C@@H]6CC(=Cc7ccccc7)C(=O)[C@H]5[C@@]3(CC[C@H]21)C[C@@]4(C(C)C)O6 [Compound 26] |  | IC50 [2]: 13.08 ± 0.01 µM
27 | COC(=O)[C@]1(C)CCC[C@]2(C)[C@H]3C[C@@H]4[C@H]5[C@@H]6CC(=Cc7ccc(OC)cc7)C(=O)[C@H]5[C@@]3(CC[C@H]21)C[C@@]4(C(C)C)O6 [Compound 27] |  | IC50 [2]: > 255 µM
28 | COC(=O)[C@]1(C)CCC[C@]2(C)[C@H]3C[C@@H]4[C@H]5[C@@H]6CC(=Cc7ccc(OC)c(OC)c7)C(=O)[C@H]5[C@@]3(CC[C@H]21)C[C@@]4(C(C)C)O6 [Compound 28] |  | IC50 [2]: 12.7 ± 0.21 µM
29 | COC(=O)[C@]1(C)CCC[C@]2(C)[C@H]3C[C@@H]4[C@H]5[C@@H]6CC(=Cc7ccco7)C(=O)[C@H]5[C@@]3(CC[C@H]21)C[C@@]4(C(C)C)O6 [Compound 29] |  | IC50 [2]: 1.63 ± 0.041 µM
30 | COC(=O)[C@]1(C)CCC[C@]2(C)[C@H]3C[C@@H]4[C@H]5[C@@H]6CC(=Cc7cccnc7)C(=O)[C@H]5[C@@]3(CC[C@H]21)C[C@@]4(C(C)C)O6 [Compound 30] |  | IC50 [2]: 38.8 ± 0.33 µM
31 | COC(=O)[C@]1(C)CCC[C@]2(C)[C@H]3C[C@@H]4[C@H]5[C@@H]6Cc7cn[nH]c7[C@H]5[C@@]3(CC[C@H]21)C[C@@]4(C(C)C)O6 [Compound 31] | > 255 | 
32 | COC(=O)[C@]1(C)CCC[C@]2(C)[C@H]3C[C@@H]4[C@H]5[C@@H]6CC7NC(=S)NC7[C@H]5[C@@]3(CC[C@H]21)C[C@@]4(C(C)C)O6 (some centres unmarked) [Compound 32] | 9.66 ± 0.77 | 
33 | COC(=O)[C@]1(C)CCC[C@]2(C)[C@H]3C[C@@H]4[C@H]5[C@@H]6Cc7c([nH]c8ccccc78)[C@H]5[C@@]3(CC[C@H]21)C[C@@]4(C(C)C)O6 [Compound 33] | 65.98 ± 0.03 | 
34 | COC(=O)[C@]1(C)CCC[C@]2(C)[C@H]3C[C@H]4C(C(C)C)=C[C@]3(CC[C@H]21)[C@@H]1c2[nH]c3ccccc3c2-c2c([nH]c3ccccc23)[C@@H]14 [Compound 34] | > 255 | 
35 | COC(=O)c1c(C)[nH]c2c3c(c(O)cc12)[C@H]1C[C@@H]2[C@@]4(C)CCC[C@@](C)(C(=O)O)[C@@H]4CC[C@@]32C=C1C(C)C [Compound 35] |  | IC50 [2]: 7.95 ± 0.2 µM
36 | COC(=O)c1c(C)[nH]c2c3c(c(O)cc12)[C@H]1C[C@@H]2[C@@]4(C)CCC[C@@](C)(C(=O)OC)[C@@H]4CC[C@@]32C=C1C(C)C [Compound 36] |  | IC50 [2]: 8.94 ± 0.96 µM
37 | COC(=O)c1c(C)[nH]c2c3c(c(OC(C)=O)cc12)[C@H]1C[C@@H]2[C@@]4(C)CCC[C@@](C)(C(=O)OC)[C@@H]4CC[C@@]32C=C1C(C)C [Compound 37] |  | IC50 [2]: 7.28 ± 0.4 µM
38 | COC(=O)[C@]1(C)CCC[C@]2(C)[C@H]3C[C@@H]4[C@H]5[C@@H]6CCC(=O)N[C@H]5[C@@]3(CC[C@H]21)C[C@@]4(C(C)C)O6 [Compound 39] | 44.8 ± 0.96 | 
39 | CC(C)C1=CC23CCC4C(C)(C(=O)O)CCCC4(C)C2CC1C1=C3C(=O)C=CC1=O (centres unmarked) [Compound 40, 1a,4a-dehydroquinopimaric acid] | 7.09 ± 0.12 | 
40 | COC(=O)[C@]1(C)CCC[C@@]2(C)[C@H]1CC[C@]13C=C(C(C)C)[C@H](C[C@H]21)C1=C3C(=O)C=CC1=O [Compound 41, 1a,4a-dehydroquinopimaric acid methyl ester] | > 255 | 
